Assay results taken from patent US20220378707A1, “1-(((2S,3S,4S)-3-ETHYL-4-FLUORO-5-OXOPYRROLIDIN-2-YL)METHOXY)-7-METHOXYISOQUINOLINE-6-CARBOXAMIDE COMBINATIONS AND ORAL DOSAGE FORMS” (Pfizer Inc., priority 2019, published 2022).

Tested on: HUVEC and M1 macrophages+Zymosan (TLR2 ligand)
Assay: BioMAP IMphg system
Assay type: cell-based, human
Conditions: CD14+ derived macrophages; PF-06650833 19-500 nM
Description: The BioMAP systems consist of human primary cell-based systems designed to model different aspects of the human body in an in vitro format. The 12 systems tested characterized the test compounds across a broad set of systems modeling various human disease states. BioMAP systems were constructed with one or more primary cell types from healthy human donors, with stimuli (such as cytokines or growth factors) added to capture relevant signaling networks that naturally occur in human tissue or pathological conditions. […] Soluble factors from supernatants were quantified using either HTRF® detection, bead-based multiplex immunoassay or capture ELISA. Overt adverse effects of test agents on cell proliferation and viability (cytotoxicity) were detected by sulforhodamine B (SRB) staining, for adherent cells, and alamarBlue® reduction for cells in suspension. […] Each tested compound generated a signature BioMAP profile that was created from the changes in protein biomarker readouts within individual system environments. […] Each readout was measured quantitatively by immune-based methods that detected protein (e.g., ELISA) or functional assays that measured proliferation and viability. BioMAP readouts were diverse and included cell surface receptors, cytokines, chemokines, matrix molecules and enzymes. […]

CC[C@@H]1[C@H](F)C(=O)N[C@@H]1COc1nccc2cc(C(N)=O)c(OC)cc12 [PF-06650833, 1-(((2S,3S,4S)-3-Ethyl-4-fluoro-5-oxopyrrolidin-2-yl)methoxy)-7-methoxyisoquinoline-6-carboxamide]
Activity in the IMphg system: no activity was found
